Several values for one entry are separate records, joined by “and”; a condition that tells them apart may be missing. Equal entries are not always repeated. Where two headings read alike, the source gives them in different places. Square brackets hold non-standard residues; d marks the D form. Peptide text beside a SMILES is read from it. * marks the point of attachment. dPhe(4-NHCONH2) = NC(=O)Nc1ccc(C[C@@H](N)C(=O)O)cc1; Dihydroorotyl(S) = O=C1C[C@@H](C(=O)*)NC(=O)N1; dPhe(4-Cl) = N[C@H](Cc1ccc(Cl)cc1)C(=O)O; Phe(4-NH2) = Nc1ccc(C[C@H](N)C(=O)O)cc1; d2Nal = N[C@H](Cc1ccc2ccccc2c1)C(=O)O; Lys(iPr) = CC(C)NCCCC[C@H](N)C(=O)O; d3Pal = N[C@H](Cc1cccnc1)C(=O)O
How the values were obtained:
[1] = system: prostate-specific antigen (PSA); assay: PSA failure in prostate cancer patients (clinical study CS21); format: in vivo, human; conditions: for proportion of PSA failures: degarelix 240/80 mg
Method: For this analysis, PSA failure (a secondary endpoint) was defined as two consecutive increases in PSA of 50% and 5 ng/mL compared with nadir. The time to PSA failure was defined as the number of days from first dosing to where an increase in serum PSA of 50% from nadir and 5 ng/mL, measured on two consecutive occasions at least two weeks apart, was noted. The second occasion was the time point of meeting the criterion. PSA failure rates were also analyzed by disease stage and baseline PSA level.
(§1) The secondary efficacy endpoints were: the proportion of patients with testosterone surge during the first 2 weeks of treatment; the proportion of patients with testosterone level ≦0.5 ng/mL at day 3; the percentage change in PSA from baseline to day 28; the probability of testosterone ≦0.5 ng/mL from day 56 through day 364; the levels of serum testosterone, LH, FSH and PSA over time through the study; the time to PSA failure, defined as two consecutive increases of 50%, and at least 5 ng/mL as compared to nadir; degarelix concentration over the first month and trough levels at day 308 and 336; the frequency and size of testosterone increases at day 255 and/or 259 compared to the testosterone level at day 252; the quality of life on days 0, 28, 84, 168 and end of study visit; the frequency and intensity of hot flushes experienced (scored daily from study start until end of study visit). In addition, two further secondary endpoints were added: the probability of sufficient testosterone response from day 28 through day 364 (a patient was considered to have insufficient testosterone response if they had one testosterone value >1.0 ng/mL or two consecutive testosterone values >0.5 ng/mL at day 28 onwards); and the percentage change in PSA from baseline to day 14.
The secondary endpoints, probability of testosterone ≦0.5 ng/mL from day 56 through day 364, time to PSA failure, and probability of sufficient testosterone response from day 28 through day 364 were analyzed by the Kaplan-Meier method.

[2] = system: follicle stimulating hormone (FSH); assay: Serum FSH levels over time (clinical study CS21); format: in vivo, human; conditions: by day 7; degarelix
Method: (§2) The study also investigated whether degarelix is safe and effective with respect to achieving and maintaining testosterone suppression to castrate levels, evaluated as the proportion of patients with testosterone suppression ≦0.5 ng/mL during 12 months of treatment. […] The study also evaluated the pharmacokinetics of the degarelix dosing regimens investigated. Finally, the study examined the effects of using the degarelix treatment on patients suffering from different stages of cancer.
(§3) Patients in two treatment groups received a degarelix starting dose of 240 mg at a concentration of 40 mg/mL (240@40) on day 0 administered as two equivalent subcutaneous (s.c.) injections of 120 mg each. Thereafter, patients received 12 additional single s.c. degarelix doses of either 80 mg at a concentration of 20 mg/mL (80@20: degarelix 240/80 mg group) or 160 mg at a concentration of 40 mg/mL (160@40: degarelix 240/160 mg group) administered s.c. every 28 days.
as §1

[3] = system: serum alkaline phosphatase (S-ALP); assay: S-ALP analysis in prostate cancer patients (clinical study CS21); format: in vivo, human; conditions: Degarelix 240/80 mg
Method: Patients with histologically confirmed adenocarcinoma of the prostate (all stages), for whom androgen deprivation therapy was indicated were recruited. Baseline characteristics were well balanced between groups. Approximately half of patients had locally advanced (29.2%) or metastatic (20.5%) disease at baseline. […] Patients receiving leuprolide could also receive bicalutamide for clinical flare protection. The S-ALP levels were measured in each patient at various time points, by taking a blood sample and analyzing for S-ALP. S-ALP levels were measured using a standardized colorimetric assay based on the p-nitrophenyl phosphate AMP buffer method. The normal range for S-ALP is 44-147 IU/L. The S-ALP values in non-metastatic patients serve as controls. An ANOVA analysis with treatment and day as factors and baseline value as covariate was used to determine between treatment differences at Day 364. A repeated measures analysis (incorporating all time points from Day 112) with treatment and day as factors and baseline value as covariate was used to assess between treatment differences from Day 112 to Day 364.

[4] = human, in vivo
[5] = system: testosterone; format: in vivo, human; conditions: for overall proportion of patients with testosterone ≦0.5 ng/mL from day 28 to day 364: observed cases analysis
Method: The study also evaluated the pharmacokinetics of the degarelix dosing regimens investigated. Finally, the study examined the effects of using the degarelix treatment on patients suffering from different stages of cancer. […] The primary efficacy endpoint was the probability of testosterone levels remaining ≦0.5 ng/mL from day 28 through day 364. […] The primary efficacy endpoint was analyzed for both the ITT and PP analysis sets, with the ITT analysis set considered primary. The primary efficacy endpoint was analyzed using the Kaplan Meier method. For each of the three treatment groups, testosterone response rates with 95% confidence interval (CI) were calculated by log-log transformation of survivor function. […] All secondary efficacy endpoints were analyzed for both the ITT and PP analysis sets, unless otherwise stated. […] The percentage change in PSA from baseline to day 28 endpoint was analyzed by a Wilcoxon test.

[6] = in vitro; conditions: plasma
[7] = system: human CYP450 (cytochrome P450) system
[8] = clinical; design: species or system human; conditions: in vivo
Excerpt: Plasma protein binding is estimated to be approximately 90%.

[9] = system: luteinizing hormone (LH); assay: Serum LH levels over time (clinical study CS21); format: in vivo, human; conditions: day 1; degarelix, ITT analysis set
Method: as §2, §3, §1

## CC(=O)N[C@H](Cc1ccc2ccccc2c1)C(=O)N[C@H](Cc1ccc(Cl)cc1)C(=O)N[C@H](Cc1cccnc1)C(=O)N[C@@H](CO)C(=O)N[C@@H](Cc1ccc(NC(=O)[C@@H]2CC(=O)NC(=O)N2)cc1)C(=O)N[C@H](Cc1ccc(NC(N)=O)cc1)C(=O)N[C@@H](CC(C)C)C(=O)N[C@@H](CCCCNC(C)C)C(=O)N1CCC[C@H]1C(=O)N[C@H](C)C(N)=O [degarelix, D-Alaninamide, N-acetyl-3-(2-naphthalenyl)-D-alanyl-4-chloro-D-phenylalanyl-3-(3-pyridinyl)-D-alanyl-L-seryl-4-[[[(4S)-hexahydro-2,6-dioxo-4-pyrimidinyl]carbonyl]amino]-L phenylalanyl-4-[(aminocarbonyl)amino]-D-phenylalanyl-L leucyl-N6-(1-methylethyl)-L-lysyl-L-prolyl] (Ac-[d2Nal][dPhe(4-Cl)][d3Pal]S[Phe(4-NH2)](Dihydroorotyl(S))[dPhe(4-NHCONH2)]L[Lys(iPr)]P[dA]-NH2)
[1]; degarelix 240/80 mg group
  probability of completing the study without experiencing PSA failure by day 364: 91.1% and 91.2%
[1]; patients with baseline PSA>50 ng/mL
  proportion of PSA failures: 29.2%
[1]; patients with metastatic disease at baseline
  proportion of PSA failures: 21.6%
[2]
  decrease of median FSH from baseline: > 80%
  median FSH level: ≤ 1.5 IU/L
[3]; Localized, Day 112
  S-ALP mean change from baseline: +5 IU/L
[3]; Localized, Day 224
  S-ALP mean change from baseline: +8 IU/L
[3]; Localized, Day 364
  S-ALP mean change from baseline: +10 IU/L
[3]; Locally advanced, Day 112
  S-ALP mean change from baseline: +6 IU/L
[3]; Locally advanced, Day 224
  S-ALP mean change from baseline: +7 IU/L
[3]; Locally advanced, Day 364
  S-ALP mean change from baseline: +10 IU/L
[3]; Metastatic (Hb < 130 g/L), Day 112
  S-ALP mean change from baseline: −160 IU/L
[3]; Metastatic (Hb < 130 g/L), Day 224
  S-ALP mean change from baseline: −200 IU/L
[3]; Metastatic (Hb < 130 g/L), Day 364
  S-ALP mean change from baseline: −230 IU/L
[3]; Metastatic, Day 112
  S-ALP mean change from baseline: −90 IU/L
[3]; Metastatic, Day 224
  S-ALP mean change from baseline: −100 IU/L
[3]; Metastatic, Day 364
  S-ALP mean change from baseline: −90 IU/L
[3]; baseline PSA 10-20 ng/mL, Day 112
  S-ALP mean change from baseline: +5 IU/L
[3]; baseline PSA 10-20 ng/mL, Day 224
  S-ALP mean change from baseline: +8 IU/L
[3]; baseline PSA 10-20 ng/mL, Day 364
  S-ALP mean change from baseline: +13 IU/L
[3]; baseline PSA 20-50 ng/mL, Day 112
  S-ALP mean change from baseline: +5 IU/L
[3]; baseline PSA 20-50 ng/mL, Day 224
  S-ALP mean change from baseline: +7.5 IU/L
[3]; baseline PSA 20-50 ng/mL, Day 364
  S-ALP mean change from baseline: +4.5 IU/L
[3]; baseline PSA < 10 ng/mL, Day 112
  S-ALP mean change from baseline: +4.5 IU/L
[3]; baseline PSA < 10 ng/mL, Day 224
  S-ALP mean change from baseline: +5.5 IU/L
[3]; baseline PSA < 10 ng/mL, Day 364
  S-ALP mean change from baseline: +7 IU/L
[3]; baseline PSA > 50 ng/mL, Day 112
  S-ALP mean change from baseline: −60 IU/L
[3]; baseline PSA > 50 ng/mL, Day 224
  S-ALP mean change from baseline: −70 IU/L
[3]; baseline PSA > 50 ng/mL, Day 364
  S-ALP mean change from baseline: −60 IU/L
[4]
  tolerability: generally well tolerated
[5]; 240 mg then monthly 80 mg, after one year
  median testosterone level: 0.087 ng/mL
[5]; 240 mg then monthly 80 mg, at least one year
  patients with sustained testosterone suppression: 97%
[5]; degarelix 240/80 mg group
  Kaplan-Meier estimate of the probability of testosterone ≦0.5 ng/mL from day 28 to day 364: 97.2%
  overall proportion of patients with testosterone ≦0.5 ng/mL from day 28 to day 364: 97.0%
[5]; degarelix 240/160 mg group
  Kaplan-Meier estimate of the probability of testosterone ≦0.5 ng/mL from day 28 to day 364: 98.3%
  overall proportion of patients with testosterone ≦0.5 ng/mL from day 28 to day 364: 98.2%
[5]; human, in vivo
  proportion of patients with testosterone surge (increase 15% from baseline): 0.2%
[5]; patients receiving degarelix
  patients exhibiting testosterone suppression on day 3: 96%
[6]
  fraction unbound: ~0.1
[7]
  substrate for the human CYP450 system: not a substrate
[8]
  fraction excreted via the hepato-biliary system: approximately 80%
[8]; male, human
  Vd: ~1 L/kg
  clearance: 0.583 to 0.833 mL/min/kg
  dose excreted: ~20%
[9]
  decrease of median LH from baseline: approximately 88%
  median LH level: < 0.7 IU/L

From patent US9877999B2, “Methods for treating metastatic stage prostate cancer” (Ferring International SA, priority 2008, dated 2018)
